The values below come from PubChem BioAssay (NCI).

Structures are written as SMILES.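 The compound was tested at five concentrations on cells cultured in 96-well plates, with a 48-hour exposure period. At the GI50, growth is halved. TGI: concentration producing complete growth inhibition.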

Some test systems named below: M14 melanoma; SK-OV-3 ovarian; SK-MEL-2 melanoma; SK-MEL-5 melanoma; MALME-3M melanoma; SN12C renal; CAKI-1 renal; 786-0 renal; NCI/ADR-RES ovarian; T-47D breast.
Common to all, as to assay: inhibition of tumour cell growth, NCI panel, 48 h

In the case of `C[Si](C)(C)/C(Br)=C\CCN1C(=O)CCC1=O`, the TGI with M14 melanoma, in the experiment with SK-OV-3 ovarian, with SK-MEL-2 melanoma, in the experiment with SK-MEL-5 melanoma, in the experiment with MALME-3M melanoma and in the experiment on SN12C renal was over 100 µM in each case. In addition, the TGI with CAKI-1 renal and in the experiment on 786-0 renal was over 100 µM throughout.
As for `O=C1CCC(=O)c2c1c(O)c1ccncc1c2O`, the TGI in the experiment with M14 melanoma was determined as 28.9 µM; in the experiment on SK-OV-3 ovarian it was 98.8 µM; in the experiment with SK-MEL-2 melanoma it was 26.4 µM; in the experiment with SK-MEL-5 melanoma, 23.5 µM; in the experiment with MALME-3M melanoma it was 29.4 µM; in the experiment with SN12C renal it was 31.6 µM. The TGI in the experiment with CAKI-1 renal is 42.4 µM; with 786-0 renal, 29.1 µM.
On to `C[Si](C)(C)/C(I)=C/CO`, for which the TGI is over 100 µM in the experiment on M14 melanoma; over 100 µM with SK-OV-3 ovarian; 38.4 µM in the experiment with SK-MEL-2 melanoma; 34.6 µM with SK-MEL-5 melanoma; 74.9 µM in the experiment on MALME-3M melanoma; 64.7 µM with SN12C renal. This compound also returned a TGI in the experiment on 786-0 renal of over 100 µM.
As for `CC(C)(C)[Si](C)(C)OC1C(=O)C[C@H]2CCCC[C@@H]12` (stereo partly drawn), the TGI in the experiment on M14 melanoma, in the experiment with SK-OV-3 ovarian, with SK-MEL-2 melanoma, with SK-MEL-5 melanoma, in the experiment on MALME-3M melanoma and in the experiment with SN12C renal was over 100 µM in each case. For the same compound, the TGI in the experiment on CAKI-1 renal and in the experiment with 786-0 renal was over 100 µM throughout.
`COC(=O)C1=C(C(=O)OC)C2=S(SC3=C2CCCC3)S1` (stereo not drawn): the TGI was over 100 µM in the experiment on M14 melanoma; over 100 µM in the experiment with SK-OV-3 ovarian; 85.6 µM in the experiment on SK-MEL-2 melanoma; 4.71 µM in the experiment on SK-MEL-5 melanoma; 71.1 µM in the experiment on MALME-3M melanoma; over 100 µM with SN12C renal. Besides, the TGI in the experiment with CAKI-1 renal was over 100 µM; in the experiment with 786-0 renal, 15.2 µM.
Turning to `COc1ccc(-c2nnc(N3CCN(C(=O)CN4CCN(c5ccccc5)CC4)CC3)nc2-c2ccc(OC)cc2)cc1`, the GI50 with M14 melanoma was 4.84 µM; in the experiment with SK-OV-3 ovarian, 14.5 µM; in the experiment on SK-MEL-2 melanoma, 9.13 µM; with SK-MEL-5 melanoma, 2.99 µM; in the experiment with MALME-3M melanoma it was 2.29 µM; with SN12C renal it was 2.85 µM. Further, the GI50 with NCI/ADR-RES ovarian is 5.15 µM; with CAKI-1 renal, 6.23 µM; in the experiment with 786-0 renal, 5.37 µM. The TGI is over 100 µM with M14 melanoma; 70.7 µM in the experiment with SK-OV-3 ovarian; 55.8 µM in the experiment on SK-MEL-2 melanoma; over 100 µM in the experiment with SK-MEL-5 melanoma; over 100 µM in the experiment with MALME-3M melanoma; over 100 µM in the experiment on SN12C renal. In addition, the TGI in the experiment on NCI/ADR-RES ovarian was over 100 µM; in the experiment with CAKI-1 renal it was over 100 µM; with 786-0 renal, 29.3 µM.
Regarding `CN(C)CCNC(=O)c1cccc2c(Nc3ccc(S(=O)(=O)N=C(N)N)cc3)c3ccccc3nc12`, the TGI is over 100 µM with M14 melanoma; 38.5 µM in the experiment with SK-MEL-2 melanoma; 27.9 µM in the experiment with SK-MEL-5 melanoma; 59.5 µM in the experiment with SN12C renal; 60 µM in the experiment on 786-0 renal.
On to `O=[N+]([O-])c1ccc(-c2cnc3ccccn23)cc1`, for which the TGI in the experiment on M14 melanoma, with SK-OV-3 ovarian, in the experiment on SK-MEL-2 melanoma, in the experiment with SK-MEL-5 melanoma, with MALME-3M melanoma and with SN12C renal was over 100 µM in each case. The TGI with CAKI-1 renal and in the experiment on 786-0 renal was over 100 µM in each case.
In the case of `Cc1cc(N(CCCNc2ccnc3cc(Cl)ccc23)Cc2ccc3c(c2)OCO3)nc(N2CCOCC2)n1`, the GI50 in the experiment with SK-MEL-2 melanoma is 0.207 µM; with SK-MEL-5 melanoma it was 0.169 µM; in the experiment on SN12C renal, 0.292 µM; in the experiment with NCI/ADR-RES ovarian it was 0.692 µM; in the experiment with T-47D breast, 0.323 µM; with 786-0 renal it was 0.254 µM. Besides, the TGI was found to be 0.457 µM in the experiment with SK-MEL-2 melanoma; 0.309 µM in the experiment on SK-MEL-5 melanoma; 14.4 µM in the experiment with SN12C renal; 23 µM in the experiment with NCI/ADR-RES ovarian; 0.998 µM in the experiment with T-47D breast; 0.907 µM in the experiment with 786-0 renal.
As to `Cn1cnnc1Sc1c([N+](=O)[O-])ncn1C`, the TGI in the experiment with M14 melanoma is over 100 µM; with SK-OV-3 ovarian, over 100 µM; in the experiment on SK-MEL-2 melanoma, over 100 µM; in the experiment with SK-MEL-5 melanoma it was over 100 µM; in the experiment on MALME-3M melanoma, 46.1 µM; with SN12C renal it was over 100 µM. Further, the TGI in the experiment on CAKI-1 renal and in the experiment on 786-0 renal was over 100 µM throughout.
`C[C@]12CCC(=O)C=C1CC[C@@H]1C2CC[C@]2(C)Nc3[nH]ncc3CC12` (stereo partly drawn): the TGI in the experiment with M14 melanoma, in the experiment on SK-OV-3 ovarian, in the experiment on SK-MEL-2 melanoma, in the experiment with SK-MEL-5 melanoma, with MALME-3M melanoma and in the experiment on CAKI-1 renal was over 100 µM throughout. This compound also showed a TGI in the experiment with 786-0 renal of over 100 µM.
In the case of `CC(C)=CCc1cc2c(cc1O)OC[C@H]1c3cc4c(cc3O[C@@H]21)OCO4`, the TGI in the experiment on M14 melanoma is over 100 µM; with SK-OV-3 ovarian, over 100 µM; with SK-MEL-5 melanoma, 39.3 µM; in the experiment with NCI/ADR-RES ovarian, 76.1 µM; in the experiment on CAKI-1 renal, over 100 µM; in the experiment on T-47D breast it was over 100 µM. In the experiment on 786-0 renal, this compound displayed a TGI of over 100 µM.
On to `CS/C(=C(\S)c1ccccc1)c1ccccc1`, for which the TGI with M14 melanoma, with SK-OV-3 ovarian, with SK-MEL-2 melanoma, with SK-MEL-5 melanoma, with MALME-3M melanoma and with SN12C renal was over 100 µM throughout. The TGI in the experiment with CAKI-1 renal and in the experiment on 786-0 renal was over 100 µM each time.
`O=C(Nc1cc(C(F)(F)F)ccc1Cl)c1cccc(NC2=C(Cl)C(=O)N(Cc3ccccc3)C2=O)c1`: the GI50 in the experiment on M14 melanoma is 82.6 µM; in the experiment with SK-OV-3 ovarian it was over 100 µM; in the experiment with SK-MEL-2 melanoma it was 30.8 µM; in the experiment with SK-MEL-5 melanoma, 12.8 µM; in the experiment on SN12C renal, 32.1 µM; in the experiment with CAKI-1 renal it was 89.3 µM. For the same compound, the GI50 is 81.1 µM in the experiment with T-47D breast and 38.5 µM in the experiment with 786-0 renal. Besides, the TGI in the experiment with M14 melanoma, in the experiment with SK-OV-3 ovarian, in the experiment on SK-MEL-2 melanoma, with SK-MEL-5 melanoma, in the experiment on SN12C renal and in the experiment with CAKI-1 renal was over 100 µM each time. Further, the TGI in the experiment with T-47D breast and with 786-0 renal was over 100 µM each time.
